Assay type in all cases: cell-based
Assay [1] addresses T1, BRAF V600E (Homo sapiens, UniProt P15056, V600E).
T1 construct: endogenous C-terminal HiBiT fusion tag on BRAF V600E allele; endogenous in cells; host or cells: A375 clone 1F10 (CRISPR-Cas9 knock-in of the HiBiT tag; parental A375 from ATCC)
The assay can be described thus: BRAF HiBiT degradation assay, C-terminal HiBiT-tagged BRAF V600E A375 cells (clone 1F10), Nano-Glo HiBiT Lytic assay. The note with it: for Dmax: A-375. Summed up:
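Degradation is measured as loss of HiBiT signal from BRAF V600E tagged at its native locus in A375 cells. Doses span 1 μM to 0.01 nM in half-log steps, in duplicate. Percent remaining is calculated against DMSO controls after subtracting untagged A375 background, and curve fitting yields DC50 and observed Dmax.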

The target of assay [2] is T2, BRAF G466V (Homo sapiens, UniProt P15056, G466V).
T2 construct: Horizon Discovery (HCT-116 BRAF−/− cells); host or cells: HCT-116 BRAF−/− cells, clone 8, lentiviral transduction
As to the kind of experiment: BRAF HiBiT degradation assay, C-terminal HiBiT-tagged BRAF G466V overexpressed in HCT-116 BRAF−/− cells (clone 8), Nano-Glo HiBiT Lytic assay. Summed up:
(§1)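 First, the stable HiBiT-tagged cells were plated and incubated for 24 h. Next, compound was added in duplicate as an 11-point series with a 1 μM top concentration. Lytic detection followed, with DMSO-treated parental cells used for background. Finally, DC50 and Obs. Dmax relative to DMSO were derived from the % protein remaining curves.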

For assay [3], the target named is T3, BRAF G469A (Homo sapiens, UniProt P15056, G469A).
T3 construct: Horizon Discovery (HCT-116 BRAF−/− cells); host or cells: HCT-116 BRAF−/− cells, clone 34, lentiviral transduction
As to the kind of experiment: BRAF HiBiT degradation assay, C-terminal HiBiT-tagged BRAF G469A overexpressed in HCT-116 BRAF−/− cells (clone 34), Nano-Glo HiBiT Lytic assay. Summed up: as §1
In general terms: HiBiT is a short tag that completes a luciferase, so light tracks the accessible tagged protein.

For assay [4], the target named is T4, BRAF D594G (Homo sapiens, UniProt P15056, D594G).
T4 construct: Horizon Discovery (HCT-116 BRAF−/− cells); host or cells: HCT-116 BRAF−/− cells, clone 63, lentiviral transduction
As to the kind of experiment: BRAF HiBiT degradation assay, C-terminal HiBiT-tagged BRAF D594G overexpressed in HCT-116 BRAF−/− cells (clone 63), Nano-Glo HiBiT Lytic assay. Put shortly: as §1

Setting [5] is: A375 (BRAF V600E, Class 1), DC50 at 50% degradation.
The mark [6] stands for this setting: A375 (BRAF V600E, Class 1), observed Dmax, % protein degraded relative to DMSO control.
Where [7] appears, read: BRAF G466V (Class 3), HCT-116 BRAF−/− cells, DC50 at 50% degradation.
Setting [8] is: BRAF G466V (Class 3), HCT-116 BRAF−/− cells, observed Dmax relative to DMSO control.
[9] abbreviates: BRAF G469A (Class 2), HCT-116 BRAF−/− cells, DC50 at 50% degradation.
The mark [10] stands for this setting: BRAF G469A (Class 2), HCT-116 BRAF−/− cells, observed Dmax relative to DMSO control.
The mark [11] stands for this setting: BRAF D594G (Class 3), HCT-116 BRAF−/− cells, DC50 at 50% degradation.
[12] abbreviates: BRAF D594G (Class 3), HCT-116 BRAF−/− cells, observed Dmax relative to DMSO control.
Setting [13] is: A375 (BRAF V600E), DC50 at 50%: fitted conc. at Y=50.
The mark [14] stands for this setting: A375 (BRAF V600E), percentage protein degraded at maximal compound effect relative to DMSO.
The mark [15] stands for this setting: BRAF G466V, DC50 at 50%: fitted conc. at Y=50.
Setting [16] is: HCT-116, BRAF G466V, percentage protein degraded at maximal compound effect relative to DMSO.
The mark [17] stands for this setting: Class 2, BRAF G469A, DC50 at 50%: fitted conc. at Y=50.
Where [18] appears, read: HCT-116, Class 2, BRAF G469A, percentage protein degraded at maximal compound effect relative to DMSO.
Setting [19] is: BRAF D594G, DC50 at 50%: fitted conc. at Y=50.
The mark [20] stands for this setting: HCT-116, BRAF D594G, percentage protein degraded at maximal compound effect relative to DMSO.

A value given as a limit tells only on which side of the number the result lay.

T4 sequence (P15056 whole entry D594G): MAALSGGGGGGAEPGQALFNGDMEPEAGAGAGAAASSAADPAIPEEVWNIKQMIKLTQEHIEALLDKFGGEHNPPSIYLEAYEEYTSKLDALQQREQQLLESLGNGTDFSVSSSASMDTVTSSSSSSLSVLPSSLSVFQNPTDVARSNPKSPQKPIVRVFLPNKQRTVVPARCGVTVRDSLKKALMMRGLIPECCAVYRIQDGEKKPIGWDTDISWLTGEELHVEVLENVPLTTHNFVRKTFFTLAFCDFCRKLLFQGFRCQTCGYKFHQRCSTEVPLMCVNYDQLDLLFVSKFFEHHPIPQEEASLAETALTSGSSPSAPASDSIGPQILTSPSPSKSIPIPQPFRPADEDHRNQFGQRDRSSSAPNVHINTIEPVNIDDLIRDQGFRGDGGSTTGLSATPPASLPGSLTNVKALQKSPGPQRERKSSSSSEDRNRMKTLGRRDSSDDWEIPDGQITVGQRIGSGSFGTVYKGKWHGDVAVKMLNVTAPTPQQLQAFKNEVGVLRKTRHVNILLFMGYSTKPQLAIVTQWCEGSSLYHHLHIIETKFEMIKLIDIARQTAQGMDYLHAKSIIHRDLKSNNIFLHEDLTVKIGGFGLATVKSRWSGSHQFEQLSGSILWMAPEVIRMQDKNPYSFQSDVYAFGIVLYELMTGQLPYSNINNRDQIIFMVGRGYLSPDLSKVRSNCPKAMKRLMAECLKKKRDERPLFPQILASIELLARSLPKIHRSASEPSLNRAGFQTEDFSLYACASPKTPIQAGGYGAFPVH
T1 sequence (P15056 whole entry V600E, the tested form may be a part): as the sequence (P15056 whole entry D594G) above, with G594D, V600E counted along it
T3 sequence (P15056 whole entry G469A): as the sequence (P15056 whole entry D594G) above, with G469A, G594D counted along it
T2 sequence (P15056 whole entry G466V): as the sequence (P15056 whole entry D594G) above, with G466V, G594D counted along it

Broadly, the DC50 is the concentration at which degradation of the target reaches its halfway point. For orientation: Dmax means the greatest extent of degradation seen. Consider `C[C@@H]1CN(c2ccc(-n3cc(-c4cc(Cl)cc(NS(=O)(=O)N5CC[C@@H](F)C5)c4F)c(-c4ccncc4)n3)nc2)CCN1CC1CCN(c2ccc([C@H]3CCC(=O)NC3=O)cc2)CC1` [Compound 320, (3R)—N-[5-chloro-3-(1-{5-[(3R)-4-[(1-{4-[(3R)-2,6-dioxopiperidin-3-yl]phenyl}piperidin-4-yl)methyl]-3-methylpiperazin-1-yl]pyridin-2-yl}-3-(pyridin-4-yl)-1H-pyrazol-4-yl)-2-fluorophenyl]-3-fluoropyrrolidine-1-sulfonamide], for which the DC50 in assay [1] (setting [5]), in assay [2] (setting [7]), in assay [3] (setting [9]) and in assay [4] (setting [11]) was below 10 nM in each case. The Dmax in assay [1] (setting [6]), in assay [2] (setting [8]), in assay [3] (setting [10]) and in assay [4] (setting [12]) was above 70% in each case.
In the case of `O=C1CC[C@H](c2ccc(N3CCC(CN4CCN(c5ccc(-n6cc(-c7cc(Cl)cc(NS(=O)(=O)N8CCCC8)c7F)c(-c7ccncc7)n6)nc5)CC4)CC3)cc2)C(=O)N1` [Compound 286, N-{5-chloro-3-[1-(5-{4-[(1-{4-[(3R)-2,6-dioxopiperidin-3-yl]phenyl}piperidin-4-yl)methyl]piperazin-1-yl}pyridin-2-yl)-3-(pyridin-4-yl)-1H-pyrazol-4-yl]-2-fluorophenyl}pyrrolidine-1-sulfonamide], the 50% degradation concentration (DC50) is below 10 nM in assay [1] (setting [5]), below 10 nM in assay [2] (setting [7]), 10 to 50 nM in assay [3] (setting [9]) and below 10 nM in assay [4] (setting [11]). Also, the Dmax in assay [1] (setting [6]) was above 70%; in assay [2] (setting [8]), above 70%; in assay [3] (setting [10]), 30 to 70%; in assay [4] (setting [12]), above 70%.
As to `CCCS(=O)(=O)Nc1cccc(-c2nc(C(C)(C)C)sc2-c2ccnc(Nc3cnn(CC4CCN(C(=O)C[C@@H]5CCN(c6ccc(C7CCC(=O)NC7=O)cc6)C5)CC4)c3)n2)c1F` (mixture of isomers) [Compound 112, N-(3-{2-tert-butyl-5-[2-({1-[(1-{2-[(3S)-1-{4-[(3RS)-2,6-dioxopiperidin-3-yl]phenyl}pyrrolidin-3-yl]acetyl}piperidin-4-yl)methyl]-1H-pyrazol-4-yl}amino)pyrimidin-4-yl]-1,3-thiazol-4-yl}-2-fluorophenyl)propane-1-sulfonamide], the half-maximal degradation concentration (DC50) in assay [1] (setting [13]) was below 10 nM; in assay [2] (setting [15]), above 500 nM; in assay [3] (setting [17]), above 500 nM; in assay [4] (setting [19]), above 500 nM. The Dmax in assay [1] (setting [14]) was 30 to 70%; in assay [2] (setting [16]), below 30%; in assay [3] (setting [18]), below 30%; in assay [4] (setting [20]), 30 to 70%.
On to `CCCS(=O)(=O)Nc1cccc(-c2nc(C(C)(C)C)sc2-c2ccnc(NCC3CCN(CC4CCN(c5ccc(C(=O)N[C@H]6CCC(=O)NC6=O)nc5)CC4)CC3)n2)c1F` [Compound 147, 5-{4-[(4-{[(4-{2-tert-butyl-4-[2-fluoro-3-(propane-1-sulfonamido)phenyl]-1,3-thiazol-5-yl}pyrimidin-2-yl)amino]methyl}piperidin-1-yl)methyl]piperidin-1-yl}-N-[(3S)-2,6-dioxopiperidin-3-yl]pyridine-2-carboxamide], for which the 50% degradation concentration (DC50) in assay [1] (setting [13]) is 50 to 500 nM; in assay [2] (setting [15]) it was above 500 nM; in assay [3] (setting [17]), above 500 nM; in assay [4] (setting [19]), above 500 nM. For the same molecule, the Dmax in assay [1] (setting [14]) was 30 to 70%; in assay [2] (setting [16]), below 30%; in assay [3] (setting [18]), below 30%; in assay [4] (setting [20]), below 30%.
As for `CCN(C)S(=O)(=O)Nc1cccc(-c2nc(C(C)(C)C)sc2-c2ccnc(Nc3ccc(N4CCN(CC5CC6(C5)CN(c5ccc(C7CCC(=O)NC7=O)cn5)C6)CC4)cn3)n2)c1F` (racemic) [Compound 30, Rac-(3R)-3-{6-[6-({4-[6-({4-[2-tert-butyl-4-(3-{[ethyl(methyl)sulfamoyl]amino}-2-fluorophenyl)-1,3-thiazol-5-yl]pyrimidin-2-yl}amino)pyridin-3-yl]piperazin-1-yl}methyl)-2-azaspiro[3.3]heptan-2-yl]pyridin-3-yl}piperidine-2,6-dione], the DC50 in assay [1] (setting [13]) was below 10 nM; in assay [2] (setting [15]) it was 10 to 50 nM; in assay [3] (setting [17]), 10 to 50 nM; in assay [4] (setting [19]), below 10 nM. Besides, the maximal degradation (Dmax) was above 70% in assay [1] (setting [14]), 30 to 70% in assay [2] (setting [16]), 30 to 70% in assay [3] (setting [18]) and 30 to 70% in assay [4] (setting [20]).
For the molecule `O=C1CC[C@H](c2ccc(N3CCC(CN4CCN(c5ccc(-n6cc(-c7cc(Cl)cc(NS(=O)(=O)N8CCCC8)c7F)c(-c7ccncc7)n6)nc5)CC4)CC3)nc2)C(=O)N1` [Compound 290, N-{5-chloro-3-[1-(5-{4-[(1-{5-[(3R)-2,6-dioxopiperidin-3-yl]pyridin-2-yl}piperidin-4-yl)methyl]piperazin-1-yl}pyridin-2-yl)-3-(pyridin-4-yl)-1H-pyrazol-4-yl]-2-fluorophenyl}pyrrolidine-1-sulfonamide], the DC50 in assay [1] (setting [5]), in assay [2] (setting [7]), in assay [3] (setting [9]) and in assay [4] (setting [11]) was below 10 nM in each case. The Dmax in assay [1] (setting [6]), in assay [2] (setting [8]), in assay [3] (setting [10]) and in assay [4] (setting [12]) was above 70% each time.
`O=C1CCC(c2ccc(N3CCC(CN4CCN(c5ccc(-n6cc(-c7cc(F)cc(NS(=O)(=O)N8CC[C@@H](F)C8)c7F)c(-c7ccncc7)n6)nc5)CC4)CC3)nc2)C(=O)N1` (mixture of isomers) [Compound 304, (3R)—N-{3-[1-(5-{4-[(1-{5-[(3RS)-2,6-dioxopiperidin-3-yl]pyridin-2-yl}piperidin-4-yl)methyl]piperazin-1-yl}pyridin-2-yl)-3-(pyridin-4-yl)-1H-pyrazol-4-yl]-2,5-difluorophenyl}-3-fluoropyrrolidine-1-sulfonamide]: the DC50 was below 10 nM in assay [1] (setting [5]), below 10 nM in assay [2] (setting [7]), 10 to 50 nM in assay [3] (setting [9]) and below 10 nM in assay [4] (setting [11]). Also, the greatest degradation seen (Dmax) in assay [1] (setting [6]), in assay [2] (setting [8]), in assay [3] (setting [10]) and in assay [4] (setting [12]) was above 70% each time.
Consider `CCN(C)S(=O)(=O)Nc1cccc(-c2nc(C)sc2-c2ccnc(Nc3ccc(N4CCN(CC5CCN(c6ccc([C@H]7CCC(=O)NC7=O)cc6)CC5)CC4)cn3)n2)c1F` [Compound 41, (3R)-3-{4-[4-({4-[6-({4-[4-(3-{[ethyl(methyl)sulfamoyl]amino}-2-fluorophenyl)-2-methyl-1,3-thiazol-5-yl]pyrimidin-2-yl}amino)pyridin-3-yl]piperazin-1-yl}methyl)piperidin-1-yl]phenyl}piperidine-2,6-dione], for which the DC50 is below 10 nM in assay [1] (setting [13]), 50 to 500 nM in assay [2] (setting [15]), 10 to 50 nM in assay [3] (setting [17]) and 10 to 50 nM in assay [4] (setting [19]). The Dmax in assay [1] (setting [14]) was above 70%; in assay [2] (setting [16]), 30 to 70%; in assay [3] (setting [18]) it was 30 to 70%; in assay [4] (setting [20]), 30 to 70%.
For `CCCS(=O)(=O)Nc1cccc(-c2nc(C3CCC4(CC3)CCN(C(=O)CCCCCc3ccc5c(c3)C(=O)N(C3CCC(=O)NC3=O)C5)CC4)sc2-c2ccnc(N)n2)c1F` (racemic) [Compound 235, Rac-N-{3-[5-(2-aminopyrimidin-4-yl)-2-[3-(6-{2-[(3R)-2,6-dioxopiperidin-3-yl]-3-oxo-2,3-dihydro-1H-isoindol-5-yl}hexanoyl)-3-azaspiro[5.5]undecan-9-yl]-1,3-thiazol-4-yl]-2-fluorophenyl}propane-1-sulfonamide], the DC50 in assay [1] (setting [13]) was below 10 nM; in assay [2] (setting [15]), above 500 nM; in assay [3] (setting [17]), above 500 nM; in assay [4] (setting [19]) it was above 500 nM. Moreover, the Dmax was above 70% in assay [1] (setting [14]), 30 to 70% in assay [2] (setting [16]), 30 to 70% in assay [3] (setting [18]) and 30 to 70% in assay [4] (setting [20]).

Values taken from patent publication US20260317324A1, “BIFUNCTIONAL COMPOUNDS FOR DEGRADING BRAF VIA UBIQUITIN PROTEOSOME PATHWAY” (Nurix Therapeutics, Inc., priority 2023, published 2026).
